# From ChEMBL document CHEMBL3393039, “Anthranilic acid derivatives as nuclear receptor modulators--development of novel PPAR selective and dual PPAR/FXR ligands” (Bioorg Med Chem, 2015)
# Activity calls are given as the source filed them. The rule behind the calls is not given here.
# Key:
# [1] = biological target: T1, Peroxisome proliferator-activated receptor delta (Homo sapiens) (UniProt Q03181); experiment: Transactivation of Gal4-tagged PPARdelta ligand binding domain (unknown origin) expressed in COS7 cells at 30 uM measured after overnight incubation by luciferase reporter gene assay; type: cell-based; details: COS-7
# T1 sequence (whole entry): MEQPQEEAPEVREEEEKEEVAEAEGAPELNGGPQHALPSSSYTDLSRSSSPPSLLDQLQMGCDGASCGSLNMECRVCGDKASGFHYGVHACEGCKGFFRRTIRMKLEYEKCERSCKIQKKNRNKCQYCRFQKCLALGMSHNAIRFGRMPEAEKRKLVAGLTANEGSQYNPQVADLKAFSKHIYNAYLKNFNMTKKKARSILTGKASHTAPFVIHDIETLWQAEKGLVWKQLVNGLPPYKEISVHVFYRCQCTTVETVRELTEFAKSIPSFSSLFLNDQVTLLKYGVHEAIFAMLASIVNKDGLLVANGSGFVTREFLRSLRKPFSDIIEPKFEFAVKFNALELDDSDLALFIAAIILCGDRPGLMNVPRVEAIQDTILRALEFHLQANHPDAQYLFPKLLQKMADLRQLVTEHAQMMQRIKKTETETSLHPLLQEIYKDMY
# [2] = biological target: T2, Bile acid receptor (Homo sapiens) (UniProt Q96RI1); experiment: Transactivation of human FXR expressed in human HeLa cells at 30 uM incubated for 24 hrs by luciferase reporter gene assay; type: cell-based
# T2 sequence (whole entry): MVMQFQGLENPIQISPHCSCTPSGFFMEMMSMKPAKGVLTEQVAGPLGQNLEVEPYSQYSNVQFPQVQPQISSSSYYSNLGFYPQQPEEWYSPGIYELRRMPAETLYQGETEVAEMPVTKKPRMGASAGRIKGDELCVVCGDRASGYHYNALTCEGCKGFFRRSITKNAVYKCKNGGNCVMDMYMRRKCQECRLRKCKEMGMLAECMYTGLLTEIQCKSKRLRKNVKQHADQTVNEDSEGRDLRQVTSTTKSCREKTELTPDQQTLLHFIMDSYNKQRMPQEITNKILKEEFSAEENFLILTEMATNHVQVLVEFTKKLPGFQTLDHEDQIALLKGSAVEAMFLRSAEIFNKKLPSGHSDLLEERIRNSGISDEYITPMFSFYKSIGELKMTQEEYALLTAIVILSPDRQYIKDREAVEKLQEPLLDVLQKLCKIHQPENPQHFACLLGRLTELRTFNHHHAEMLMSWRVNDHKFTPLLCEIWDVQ
# [3] = biological target: T3, Peroxisome proliferator-activated receptor alpha (Homo sapiens) (UniProt Q07869); experiment: Transactivation of Gal4-tagged PPARalpha ligand binding domain (unknown origin) expressed in COS7 cells at 30 uM measured after overnight incubation by luciferase reporter gene assay; type: cell-based; details: COS-7
# T3 sequence (whole entry): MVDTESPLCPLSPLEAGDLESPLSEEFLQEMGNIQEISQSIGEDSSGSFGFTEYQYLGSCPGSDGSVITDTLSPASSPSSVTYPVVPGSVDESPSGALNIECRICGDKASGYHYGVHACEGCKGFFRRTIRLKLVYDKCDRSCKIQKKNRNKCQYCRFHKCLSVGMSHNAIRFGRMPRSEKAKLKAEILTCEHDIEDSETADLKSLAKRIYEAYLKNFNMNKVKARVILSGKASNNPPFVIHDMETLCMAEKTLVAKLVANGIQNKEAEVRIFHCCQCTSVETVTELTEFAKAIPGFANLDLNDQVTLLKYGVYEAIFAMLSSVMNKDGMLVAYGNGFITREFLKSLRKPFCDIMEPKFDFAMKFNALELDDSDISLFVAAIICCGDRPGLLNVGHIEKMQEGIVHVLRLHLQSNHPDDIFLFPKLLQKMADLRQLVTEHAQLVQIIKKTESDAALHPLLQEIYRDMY
# [4] = biological target: T4, Peroxisome proliferator-activated receptor gamma (Homo sapiens) (UniProt P37231); experiment: Transactivation of Gal4-tagged PPARgamma ligand binding domain (unknown origin) expressed in COS7 cells at 30 uM measured after overnight incubation by luciferase reporter gene assay; type: cell-based; details: COS-7
# T4 sequence (whole entry): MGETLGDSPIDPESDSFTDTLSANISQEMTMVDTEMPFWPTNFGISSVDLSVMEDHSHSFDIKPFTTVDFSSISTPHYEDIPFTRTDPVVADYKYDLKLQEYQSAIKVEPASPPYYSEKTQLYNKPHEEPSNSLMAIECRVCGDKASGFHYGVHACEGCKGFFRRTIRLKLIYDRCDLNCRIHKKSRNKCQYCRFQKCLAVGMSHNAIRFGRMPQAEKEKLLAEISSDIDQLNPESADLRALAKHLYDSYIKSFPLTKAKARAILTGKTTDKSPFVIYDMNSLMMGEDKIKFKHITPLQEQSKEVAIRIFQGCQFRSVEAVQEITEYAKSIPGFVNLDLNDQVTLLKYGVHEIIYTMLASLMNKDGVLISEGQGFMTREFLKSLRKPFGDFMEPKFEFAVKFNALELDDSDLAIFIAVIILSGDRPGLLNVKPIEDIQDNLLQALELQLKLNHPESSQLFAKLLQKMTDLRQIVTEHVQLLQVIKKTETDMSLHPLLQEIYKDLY
# [5] = biological target: T3, Peroxisome proliferator-activated receptor alpha (Homo sapiens); experiment: Transactivation of Gal4-tagged PPARalpha ligand binding domain (unknown origin) expressed in COS7 cells at 10 uM measured after overnight incubation by luciferase reporter gene assay; type: cell-based; details: COS-7
# [6] = biological target: T5, Peroxisome proliferator-activated receptor gamma (Homo sapiens, UniProt P37231); experiment: Transactivation of Gal4-tagged PPARgamma ligand binding domain (unknown origin) expressed in COS7 cells measured after overnight incubation by luciferase reporter gene assay; type: cell-based, COS-7
# T5 sequence (P37231 whole entry): T4 sequence (whole entry)
# [7] = biological target: T4, Peroxisome proliferator-activated receptor gamma (Homo sapiens); experiment: Transactivation of Gal4-tagged PPARgamma ligand binding domain (unknown origin) expressed in COS7 cells measured after overnight incubation by luciferase reporter gene assay relative to piaglitazone; type: cell-based; details: Chlorocebus aethiops; COS-7
# [8] = biological target: T6, Bile acid receptor (Homo sapiens, UniProt Q96RI1); experiment: Transactivation of human FXR expressed in human HeLa cells incubated for 24 hrs by luciferase reporter gene assay; type: cell-based
# T6 sequence (Q96RI1 whole entry): T2 sequence (whole entry)
# [9] = biological target: T2, Bile acid receptor (Homo sapiens); experiment: Transactivation of human FXR expressed in human HeLa cells incubated for 24 hrs by luciferase reporter gene assay relative to GW4064; type: cell-based
# [10] = biological target: T7, Peroxisome proliferator-activated receptor delta (Homo sapiens, UniProt Q03181); experiment: Transactivation of Gal4-tagged PPARdelta ligand binding domain (unknown origin) expressed in COS7 cells measured after overnight incubation by luciferase reporter gene assay; type: cell-based, COS-7
# T7 sequence (Q03181 whole entry): T1 sequence (whole entry)
# [11] = biological target: T8, Peroxisome proliferator-activated receptor alpha (Homo sapiens, UniProt Q07869); experiment: Transactivation of Gal4-tagged PPARalpha ligand binding domain (unknown origin) expressed in COS7 cells measured after overnight incubation by luciferase reporter gene assay; type: cell-based, COS-7
# T8 sequence (Q07869 whole entry): T3 sequence (whole entry)
# [12] = biological target: T1, Peroxisome proliferator-activated receptor delta (Homo sapiens); experiment: Transactivation of Gal4-tagged PPARdelta ligand binding domain (unknown origin) expressed in COS7 cells measured after overnight incubation by luciferase reporter gene assay relative to L165,041; type: cell-based; details: Chlorocebus aethiops; COS-7
# [13] = biological target: T4, Peroxisome proliferator-activated receptor gamma (Homo sapiens); experiment: Transactivation of Gal4-tagged PPARgamma ligand binding domain (unknown origin) expressed in COS7 cells at 10 uM measured after overnight incubation by luciferase reporter gene assay; type: cell-based; details: COS-7
Structure (SMILES),Activity [1],Activity [2],Activity [3],Activity [4],max activation [5] [%],EC50 [6] [µM],max activation [7] [%],EC50 [8] [µM],max activation [9] [%],EC50 [10] [µM],EC50 [11] [µM],max activation [12] [%],max activation [13] [%]
O=C(O)c1cccc(NC(=O)c2c(Cl)cccc2NC(=O)c2ccc(C(F)(F)F)cc2)c1,inactive,inactive,inactive,inactive,,,,,,,,,
O=C(O)c1cccc(NC(=O)c2ccccc2NC(=O)c2cc(C(F)(F)F)cc(C(F)(F)F)c2)c1,inactive,inactive,,,15,11,114,,,,,,
CC(C)(C)c1ccc(C(=O)Nc2ccccc2C(=O)Nc2cccc(C#N)c2)cc1,inactive,,inactive,inactive,,,,,18,,,,
CC(C)(C)c1ccc(C(=O)Nc2cccc(Cl)c2C(=O)Nc2cccc(C(=O)O)c2)cc1,inactive,inactive,inactive,inactive,,,,,,,,,
CCc1ccc(C(=O)Nc2ccccc2C(=O)NCCCC(=O)O)cc1,inactive,,,,,,,,,,15.7,,39
CC(C)(C)c1ccc(C(=O)Nc2ccccc2C(=O)Nc2cc(C(=O)O)ccc2F)cc1,inactive,,,,17,5.8,735,,12,,,,
O=C(O)c1cccc(NC(=O)c2cc(Cl)ccc2NC(=O)c2ccc(C(F)(F)F)cc2)c1,,,,,25,4.7,415,3.4,16.9,6.3,,24,
O=C(O)CCCNC(=O)c1ccccc1NC(=O)C(c1ccccc1)c1ccccc1,inactive,inactive,inactive,inactive,,,,,,,,,
CC(C)(C)c1ccc(C(=O)Nc2ccccc2C(=O)Nc2cc(C(=O)O)ccc2Cl)cc1,inactive,,,,16,1.9,154,,16,,,,
CC(C)(C)c1ccc(C(=O)Nc2c(Cl)cccc2C(=O)Nc2cccc(C(=O)O)c2)cc1,inactive,inactive,inactive,inactive,,,,,,,,,
O=C(O)c1cccc(NC(=O)c2ccc(Cl)cc2NC(=O)c2ccc(C(F)(F)F)cc2)c1,,,,,,8.7,420,2.1,17.8,3.4,18.6,16.5,
CC(C)(C)c1ccc(C(=O)Nc2ccccc2C(=O)NCCCC(=O)O)cc1,inactive,,inactive,inactive,,,,,,,,,

# The next lines start with the values.
Activity [1],Activity [2],Activity [3],Activity [4],max activation [5] [%],EC50 [6] [µM],max activation [7] [%],EC50 [8] [µM],max activation [9] [%],EC50 [10] [µM],EC50 [11] [µM],max activation [12] [%],max activation [13] [%],Structure (SMILES)
inactive,,inactive,inactive,,,,0.07,15,,,,,CC(C)(C)c1ccc(C(=O)Nc2ccccc2C(=O)Nc2cccc(C(N)=O)c2)cc1
,,,,,6.9,70,2.3,13,6.8,5.9,120,,O=C(O)CCc1cccc(NC(=O)c2ccccc2NC(=O)c2ccc(C(F)(F)F)cc2)c1
,,,,,9.4,161,2.6,14.8,2.2,5.4,58,,O=C(O)Cc1cccc(NC(=O)c2ccccc2NC(=O)c2ccc(C(F)(F)F)cc2)c1
inactive,inactive,inactive,inactive,,,,,,,,,,CN(C(=O)c1ccc2ccccc2c1)c1ccccc1C(=O)NCCCC(=O)O
inactive,,inactive,inactive,,,,,13,,,,,COc1cccc(NC(=O)c2ccccc2NC(=O)c2ccc(C(C)(C)C)cc2)c1
inactive,inactive,inactive,inactive,,,,,,,,,,CN(CCCC(=O)O)C(=O)c1ccccc1NC(=O)c1ccc2ccccc2c1
inactive,,,,,5,175,0.06,22,,5.4,,,CC(C)(C)c1ccc(C(=O)Nc2ccccc2C(=O)Nc2cccc(CCC(=O)O)c2)cc1
inactive,inactive,inactive,inactive,,,,,,,,,,COc1ccc(C(=O)Nc2ccccc2C(=O)Nc2cccc(CC(=O)O)c2)cc1OC
,,,,,4.4,158,7,23,2.3,1.3,64,,O=C(O)Cc1cccc(NC(=O)c2ccccc2NC(=O)c2ccc(SC(F)(F)F)cc2)c1
inactive,,,,17,,,,,,,,56,O=C(O)c1ccc(CNC(=O)c2ccccc2NC(=O)c2ccc3ccccc3c2)cc1
inactive,,inactive,,,,,,,,,,25,O=C(O)Cc1ccc(NC(=O)c2ccccc2NC(=O)c2ccc3ccccc3c2)cc1
inactive,inactive,,,12,41,397,,,,,,,O=C(O)CCCNC(=O)c1ccccc1NC(=O)c1cccc2ccccc12
inactive,inactive,inactive,inactive,,,,,,,,,,N#Cc1ccc(C(=O)Nc2ccccc2C(=O)Nc2cccc(CC(=O)O)c2)cc1
,,,,,17.4,200,8.5,16.9,7.4,14.4,133,,CSc1ccc(C(=O)Nc2ccccc2C(=O)Nc2cccc(CC(=O)O)c2)cc1
